From patent US20260232607A1, “COMPOSITIONS AND METHODS INVOLVING ISOLATED COMPOUNDS” (CuraSen Therapeutics, Inc., priority 2022, published 2026)
Where two headings read alike, the source gives them in different places.

Assays:
[1] = target: T1, β1-AR (Homo sapiens, UniProt P08588); assay: cAMP Gs HTRF assay, inhibition of isoproterenol-stimulated cAMP, affinity by Leff-Dougall equation; type: cell-based; conditions: CHO-K1 cells, approximate EC80 isoproterenol
T1 construct: expressed in transfected cells; host or cells: CHO-K1
T1 sequence (P08588 whole entry): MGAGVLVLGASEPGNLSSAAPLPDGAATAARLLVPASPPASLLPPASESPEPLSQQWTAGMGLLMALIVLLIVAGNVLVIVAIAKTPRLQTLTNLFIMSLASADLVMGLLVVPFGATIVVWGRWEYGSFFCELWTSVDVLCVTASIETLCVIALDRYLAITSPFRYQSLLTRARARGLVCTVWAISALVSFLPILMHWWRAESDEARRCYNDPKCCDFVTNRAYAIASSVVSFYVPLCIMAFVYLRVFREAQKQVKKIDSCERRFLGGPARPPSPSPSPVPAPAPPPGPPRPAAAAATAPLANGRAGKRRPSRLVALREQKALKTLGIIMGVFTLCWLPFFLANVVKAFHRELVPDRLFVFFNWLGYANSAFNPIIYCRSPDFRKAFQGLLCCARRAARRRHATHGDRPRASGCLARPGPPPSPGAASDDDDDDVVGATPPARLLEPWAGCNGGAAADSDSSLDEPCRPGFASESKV
Description: When cAMP turnover is reduced by blocking phosphodiesterases with IBMX, cAMP accumulation occurs, and this accumulation is detected in the cAMP Gs Homogenous Time Resolved Fluorescence (HTRF) assay. The HTRF assay is a competitive inhibition assay. Endogenous cAMP, produced by stimulated cells, competes with and prevents FRET between acceptor-labeled cAMP and donor-labeled cAMP antibody. Increases in endogenous cAMP therefore cause a reduction in HTRF signal, expressed as a ratio of FRET acceptor fluorescence and FRET donor fluorescence.
cAMP HTRF measurements were performed broadly according to the cAMP Gs dynamic kit protocol (Cisbio/Perkin Elmer, 62AM4PEC). Compounds were prepared at 2× final concentration to accommodate the subsequent addition of cells. […] Test compounds were serially diluted across the plate by nine 5-fold dilutions to generate a 10-point dose-response curve.
384 well plates containing compound were covered and stored at room temperature until resuspended cell addition.
D2-labelled cAMP (Acceptor) and Europium cryptate labelled cAMP antibody (Donor) (Cisbio/Perkin Elmer 62AM4PEC) were dissolved in water following the manufacturer's instructions, aliquoted and stored at −80° C.
CHO-K1 cells expressing exogenous β-ARs were resuspended using methods as described above, were recovered from flasks using PBS […] (Caisson PBL02) and centrifuged at 250×g for 5 minutes in a 50 ml falcon tube. PBS/versene was removed by aspiration and cells were resuspended in a minimal volume of room temperature 1× stimulation buffer+IBMX prior to cell counting. 5 ul cells of correct density (2000 cells/well) were added to compound in assay plates using a Multidrop Combi (Thermofisher). Cells and compounds were covered with a clear plate seal (Axygen PCR-SP) and incubated at 37° C., 5% CO2 for 30 minutes. cAMP accumulation was then stopped by adding 10 μL HTRF detection reagents in lysis buffer using the Multidrop Combi, plates were covered with an aluminum plate seal (Axygen PCR-AS-600) and agitated (Heidolph Titramax 1000, setting 600) for at least 2 hours, to allow competition between D2-cAMP and stimulated cAMP for the donor-labelled cAMP antibody to reach equilibrium.
HTRF was detected using a Tecan Spark plate reader, operated using SparkControl™ software, using the TR fluorescence intensity setting. Both donor and acceptor was excited at 320 nm, detected after 100 μs delay, with 400 μs integration time, and 50 flashes per read. […] To standardize reads across experiments, camera gain was manually set to 120 for donor detection, and 140 for acceptor detection.

[2] = In vivo PK in rats (IV and PO); conditions: male SD rat
Procedure: The rat pharmacokinetics studies of exemplary compounds NI-C and NI-D were conducted with male SD rats. These rats were typically about 6-8 weeks old, weighing 200 g to 300 g. Animals were fasted overnight and have free access to food 4 hours after dosing. A required volume of vehicle was added to reach the target concentration of the test article and vehicle component to prepare for the dosing. The dosing vehicle was PEG400 or 30% PEG400 in saline for IV, or 0.5% methylcellulose in water for PO. For IV dosing, the animals were administered intravenously via tail vein. For PO dosing, the animals were administered via oral gavage. After dosing, blood sample was collected (~0.2 mL per time point) through jugular vein or heart puncture. Blood of each sample was transferred into plastic micro centrifuge tubes containing EDTA-K2. Collection tubes with blood samples and anticoagulant were inverted several times for proper mixing of the tube contents and then placed on wet ice. The blood samples were centrifuged at 2000 g for 5 minutes at 4° C. to obtain plasma which was stored in a freezer at −75±15° C. prior to analysis. Samples were analyzed using LC-MS/MS. WinNonlin were used for pharmacokinetic calculations.

[3] = target: T2, OATP1A2 (Homo sapiens, UniProt P46721); assay: Uptake in OATP1A2-transfected cells versus control cells; conditions: 2-fold threshold
T2 sequence (P46721 1-670): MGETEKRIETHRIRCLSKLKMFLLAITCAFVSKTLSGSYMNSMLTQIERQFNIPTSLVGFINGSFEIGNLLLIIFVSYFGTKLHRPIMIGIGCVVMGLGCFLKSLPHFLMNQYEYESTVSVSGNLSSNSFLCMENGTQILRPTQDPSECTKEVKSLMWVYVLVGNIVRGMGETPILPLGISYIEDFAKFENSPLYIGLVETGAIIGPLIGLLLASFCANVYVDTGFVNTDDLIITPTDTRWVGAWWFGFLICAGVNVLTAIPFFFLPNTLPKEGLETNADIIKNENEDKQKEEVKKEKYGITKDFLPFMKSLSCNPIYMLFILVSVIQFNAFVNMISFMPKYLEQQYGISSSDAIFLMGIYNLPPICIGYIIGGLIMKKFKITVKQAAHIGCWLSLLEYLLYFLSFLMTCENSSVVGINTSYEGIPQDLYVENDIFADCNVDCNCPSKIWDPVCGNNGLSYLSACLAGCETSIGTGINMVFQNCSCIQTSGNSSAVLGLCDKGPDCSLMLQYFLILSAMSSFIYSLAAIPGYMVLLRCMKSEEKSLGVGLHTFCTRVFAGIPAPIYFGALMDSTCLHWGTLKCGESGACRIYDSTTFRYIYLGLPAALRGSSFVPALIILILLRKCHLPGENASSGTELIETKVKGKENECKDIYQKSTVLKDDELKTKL

[4] = target: T3, β2-AR (Homo sapiens, UniProt P07550); assay: Compound 03-5 β2-AR occupancy calculated with the Gaddum equation from measured plasma and CSF concentrations; conditions: alone, no nadolol or isomer competition
T3 sequence (P07550 whole entry): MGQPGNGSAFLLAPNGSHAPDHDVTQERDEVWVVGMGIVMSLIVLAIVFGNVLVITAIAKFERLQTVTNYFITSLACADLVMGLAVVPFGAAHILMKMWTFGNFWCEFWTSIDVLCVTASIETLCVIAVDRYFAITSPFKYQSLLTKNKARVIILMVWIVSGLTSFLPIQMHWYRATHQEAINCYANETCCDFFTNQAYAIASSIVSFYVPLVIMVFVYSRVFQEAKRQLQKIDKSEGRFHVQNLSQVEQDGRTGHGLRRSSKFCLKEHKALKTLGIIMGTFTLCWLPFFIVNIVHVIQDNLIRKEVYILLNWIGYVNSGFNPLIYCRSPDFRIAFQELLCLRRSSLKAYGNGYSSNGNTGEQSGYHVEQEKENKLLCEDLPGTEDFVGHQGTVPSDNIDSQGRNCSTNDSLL

[5] = target: T3, β2-AR; assay: Radioligand binding; conditions: read-out: β2-AR affinity by radioligand binding
Description: In contrast, NI-C blocks the fraction of peripheral β2-AR receptors bound by Compound 03-5 to 0.02 while maintaining the fraction of central β2-AR receptors bound by Compound 03-5 to 0.21.

[6] = clinical; conditions: human, CSF/plasma
[7] = CSF and plasma concentrations in healthy human subjects dosed with Compound 03-5 and nadolol; conditions: for CSF/Plasma ratio: Day 6; for Concentration in CSF / Concentration in plasma: Day 6, 2 hrs after Compound 03-5 (15 mg), nadolol 20 mg
[8] = target: T2, OATP1A2

Q: With `CC(C)(C)NCC(O)COc1cccc2c1CC(O)C(O)C2` (single isomer, unassigned) [NI-A, (RSR)-nadolol] as the compound, how does the Ki [1] read?
A: 891 nM

Q: What about the pKi [1] of the same compound?
A: 6.05 ± 0.10

Q: What does the source list for `CC(C)(C)NCC(O)COc1cccc2c1CC(O)C(O)C2` (single isomer, unassigned) [NI-B, (RRS)-nadolol]?
A: Ki [1]: 354 nM; pKi [1]: 6.45 ± 0.10

Q: With `CC(C)(C)NCC(O)COc1cccc2c1CC(O)C(O)C2` (single isomer, unassigned) [NI-C, (SRS)-nadolol] as the compound, how does the AUCInf ([2]; 1 mg/kg iv) read?
A: 488 ng·h/mL

Q: And the C0 ([2]; 1 mg/kg iv)?
A: 1142 ng/mL

Q: And the CL ([2]; 1 mg/kg iv)?
A: 34.5 mL/min/kg

Q: What about the T1/2 ([2]; 1 mg/kg iv) of the same compound?
A: 2.87 h

Q: What about the Vss ([2]; 1 mg/kg iv) of the same compound?
A: 4.74 L/kg

Q: And the AUCInf ([2]; 5 mg/kg po)?
A: 200 ng·h/mL

Q: And the Cmax ([2]; 5 mg/kg po)?
A: 37.9 ng/mL

Q: And the MRT ([2]; 5 mg/kg po)?
A: 4.12 h

Q: And the Tmax ([2]; 5 mg/kg po)?
A: 1.08 h

Q: And the Bioavailability ([2]; 5 mg/kg po vs 1 mg/kg iv)?
A: 8.21%

Q: And the Ki [1]?
A: 4.6 nM

Q: What about the pKi [1] of the same compound?
A: 8.34 ± 0.12

Q: Which Ki [1] does the source give for `CC(C)(C)NCC(O)COc1cccc2c1CC(O)C(O)C2` (single isomer, unassigned) [NI-D, (SSR)-nadolol] here?
A: 2.6 nM

Q: What about the pKi [1] of the same compound?
A: 8.58 ± 0.18

Q: With `CC(C)(C)NCC(O)COc1cccc2c1CC(O)C(O)C2` (centres unmarked) [(SRS)-NADOLOL] as the compound, how does the “Substrate for OATP1A2” value [3] read?
A: appear to be substrates for OATP1A2

Q: Which “Substrate for OATP1A2” value [3] does the source give for `CC(C)(C)NCC(O)COc1cccc2c1CC(O)C(O)C2` (centres unmarked) [(SSR)-NADOLOL] here?
A: does not appear to be a substrate for OATP1A2

Q: What does the source list for `CC(C)(C)NC[C@H](O)c1cccc(C#N)n1` [Compound 03-5]?
A: Fraction of β2-AR receptors bound by Compound 03-5 in the CSF [4]: 0.29; Fraction of β2-AR receptors bound by Compound 03-5 in the periphery [4]: 0.46; Ki [5]: 374 nM; Kp [6]: 0.47; Kp ([6]; oral): 0.42; CSF/Plasma ratio ([7]; Average of 4 subjects): 47%; Concentration in CSF ([7]; Average of 4 subjects): 34.675 ng/mL; Concentration in plasma ([7]; Average of 4 subjects): 74.25 ng/mL; Concentration in CSF ([7]; Subject A): 37 ng/mL; Concentration in plasma ([7]; Subject A): 87.4 ng/mL; CSF/Plasma ratio ([7]; Subject B): 44%; Concentration in CSF ([7]; Subject B): 27.1 ng/mL; Concentration in plasma ([7]; Subject B): 61.2 ng/mL; CSF/Plasma ratio ([7]; Subject C): 42%; Concentration in CSF ([7]; Subject C): 30.3 ng/mL; Concentration in plasma ([7]; Subject C): 72.9 ng/mL; CSF/Plasma ratio ([7]; Subject D): 59%; Concentration in CSF ([7]; Subject D): 44.3 ng/mL; Concentration in plasma ([7]; Subject D): 75.5 ng/mL

Q: With `CC(C)(C)NCC(O)COc1cccc2c1CC(O)C(O)C2` (centres unmarked) [Nadolol, reference compound] as the compound, how does the Ki [1] read?
A: 5.5 nM

Q: And the “Substrate for OATP1A2” value [8]?
A: appear to be substrates for OATP1A2
